We go through three compounds from patent US20220402874A1, “SOLID FORMS OF OMECAMTIV MECARBIL DIHYDROCHLORIDE AND PROCESSES THEREOF” (DR. REDDY'S LABORATORIES LIMITED, priority 2019, published 2022).

Molecules are shown by their SMILES. Where a name gives a salt, the structure may show the parent alone. Some results are limits rather than exact numbers.

A short description of series [1]: storage stability of the solid form in a closed container (PXRD). In kind it is physicochemical. How it is done: Further, the premix of amorphous solid dispersion with Soluplus is also unstable as depicted in FIG. 8.
In another aspect, the present application provides a crystalline Form OMT-D of Omecamtiv mecarbil dihydrochloride, characterized by a PXRD pattern comprising the peaks at about 12.98, 15.79, 18.55 and 25.63°±0.2° 2θ. In embodiments, the crystalline Form OMT-D of Omecamtiv mecarbil dihydrochloride is characterized by an additional peak at about 20.41°±0.2° 2θ. In embodiments, the application provides crystalline Form OMT-D of Omecamtiv mecarbil dihydrochloride, characterized by a PXRD pattern of FIG. 14. In embodiments, crystalline Form OMT-D of Omecamtiv mecarbil dihydrochloride is a solvate with dimethyl sulfoxide. In embodiments, crystalline Form OMT-D is monosolvate with dimethyl sulfoxide. In embodiments, crystalline Form OMT-D is stable for atleast 45 days stored in a closed container. In embodiments, the crystalline Form OMT-D is characterized by a thermogram of FIG. 16.

The conditions of series [2]: described in the '270 application; cited from earlier work.

In the case of `COC(=O)N1CCN(Cc2cccc(NC(=O)Nc3ccc(C)nc3)c2F)CC1` [Omecamtiv mecarbil dihydrochloride], the “stability of amorphous state (result in words)” value in series [1] (as depicted by PXRD in FIG. 5 / FIG. 8) is “unstable”.
As for `COC(=O)N1CCN(Cc2cccc(NC(=O)Nc3ccc(C)nc3)c2F)CC1` [anhydrous form B, Omecamtiv mecarbil dihydrochloride], the “stability of crystalline form (result in words)” value in series [2] is reported as “metastable”.
Consider `COC(=O)N1CCN(Cc2cccc(NC(=O)Nc3ccc(C)nc3)c2F)CC1` [Form OMT-D, Omecamtiv mecarbil dihydrochloride], for which, in series [1] (stored in a closed container), the “stable for at least (time stored)” value was ≥ 45 days.
